Source: patent publication US9540647B2, “Methods and compositions for the treatment of cancer” (University of South Alabama, priority 2010, dated 2017)
“Also recorded” adds a separate entry of the source.

Tests used:
RAW264.7 cells [1] = assay: Osteoclast resorption activity (OAAS plates); format: cell-based, murine
Method: Osteoclast differentiation and activity assays—Tartarate-resistant acid phosphatase (TRAP) assay was conducted for RAW 264.7 following the manufacturer's protocol (Sigma, St. Louis, Mo.). This assay was indicative of the extent of differentiation. OAAS plates (Osteogenic Core Technologies, Choongnam, Republic of Korea) were utilized to measure osteoclastic activity. RAW 264.7 cells (25×103) were inoculated in 48-well plates. Cells were treated with serum-free conditioned media from breast cancer cells or 100 nM SHH or 100 ng/ml OPN on the following day. Media was changed every two days and the experiments were terminated either on day 6 (day 7 for knockdown experiments, with transfections being done on the sixth day). At the completion, cells were detached with 5% sodium hypochlorite and the wells were observed under a Nikon Eclipse TS 100 microscope at 10× magnification. […] The percentage of area resorbed was calculated using the NIS-Elements BR. 3.1 software.

RAW264.7 cells [2] = assay: Osteoclast differentiation (TRAP assay); format: cell-based, murine
Method: Cell lines—Human metastatic breast cancer cells, MDA-MB-231, were cultured in Dulbecco's Modified Eagle's Medium (DMEM/F12; Invitrogen, Carlsbad, Calif.), supplemented with 2 mM L-glutamine, 1 mM sodium pyruvate, 0.02 mM non-essential amino acids, 5% fetal bovine serum, FBS (Atlanta Biologicals, Norcross, Ga.), without antibiotics or antimycotics (cDME/F12). SUM1315 and SUM159 cells (DiMeo, T. A., et al. (2009) Cancer Res 69, 5364-5373) (Asterand, Detroit, Mich.) were cultured in DMEM/F12 supplemented with […], 5% FBS (Atlanta Biologicals) and either 10 ng/ml EGF or 1 ng/ml hydrocortisone, without antibiotics or antimycotics. The SUM1315 cells are derived from a metastasis in a patient with infiltrating ductal carcinoma; SUM159 cells were derived from a primary breast tumor with metaplastic carcinoma. RAW264.7 (ATCC, TIB 71) cells, a murine pre-osteoclastic line capable of differentiation and […] in culture (in presence of RANKL and MCSF), were grown in DMEM with L-glutamine (ATCC, 30-2002) supplemented with 10% FBS. A 2× differentiation medium (DM) was formulated for the RAW 264.7 cells comprising RAW264.7 growth medium supplemented with 20% FBS, RANKL (100 ng/ml) and M-CSF (40 ng/ml) (Matsubara, T., et al. J Bone Miner Res 25, 1068-1076). Conditioned media was harvested from breast cancer cells and mixed in a 1:1 ratio with double strength differentiation medium to assess the effect on osteoclast differentiation. 1×DM was used as control or wherever SHH (R & D Systems, Minneapolis, Minn.) or OPN (R & D Systems) was used alone. The medium on the RAW264.7 cells was replenished every 48 hours. In order to assess the effect of secreted Hh ligands, the neutralizing 5E1 antibody was used (Developmental Studies Hybridoma Bank, at the University of Iowa, Iowa). […] Medium was supplemented with 5E1 (2.5 μg/ml) and was changed on alternate days until the end of the experiment. The effect of OPN on osteoclast activity was assessed by transfecting an OPN shRNA-expressing construct on day 6 post-induction of differentiation. Fresh DM was added the following day and cells were allowed to grow for another 12 hours before termination of experiment. GLI1 expression was silenced in the SUM1315 cells using shRNA targeting GLI1 into pSuperior. gfp+neo (Oligoengine, WA, USA). Silencing of OPN expression was done using OPN-targeting shRNA cloned into pSuper (Oligoengine)
Osteoclast differentiation and activity assays—Tartarate-resistant acid phosphatase (TRAP) assay was conducted for RAW 264.7 following the manufacturer's protocol (Sigma, St. Louis, Mo.). This assay was indicative of the extent of differentiation. […] The percentage of area resorbed was calculated using the NIS-Elements BR. […]

OPN mRNA = assay: OPN transcript levels by real-time RT-PCR in metastatic melanoma cell lines; format: cell-based, human; details: for levels of OPN mRNA: cyclopamine 24 h, qRT-PCR
Method: This medium was replaced with fresh cyclopamine-containing medium after 12 h. […] RNA was assessed by real-time RT-PCR for OPN transcript levels.
Stable vector only and non-targeting (scrambled control) transfectants were also generated. Stable transfectants were selected on medium supplemented with 500 μg/ml Geneticin (Invitrogen). The four GLI1-knocked down clones chosen were based on the extent of GLI1 knockdown and were termed KO1, KO2, KO3, and KO4. The expression of OPN was restored in the KO1 cells by transfecting with pcDNA3.1-OPN. A corresponding vector-only transfectant was also generated. Transfectants were selected on medium containing Geneticin (500 μg/ml) and hygromycin (750 μg/ml). Serum-free conditioned medium harvested from approximately 3.0×10^6 cells after 24 hr was assayed for OPN by immunoblotting.
Quantitative RT-PCR (qRT-PCR)—cDNA was generated using High Capacity Reverse Transcriptase Kit (Applied Biosystems, Foster City, Calif.). Real time PCR was performed using a Bio-Rad iQ5 Real-Time Detection system (Bio-Rad). All reactions were done as three independent replicates. All assays were done using the TaqMan Gene Expression Assays from Applied Biosystems. OPN (SPP1: Hs 00959010_m1) transcript levels were normalized to glyceraldehyde-3-phosphate dehydrogenase (Hs 99999905_m1) levels (δCT), which was used to calculate changes in OPN expression (2^−δδCT). […] GLI1 and SHH (Hs 00179843_m1) expressions were also similarly assessed with glyceraldehyde-3-phosphate dehydrogenase as an endogenous control. To analyze the knockdown effectiveness, “scrambled transfectants” of MDA-MB-435 was set as calibrator.

Compound	ability of osteoclasts to resorb matrix (RAW264.7 cells [1]; cyclopamine (20 μM), stimulated with breast cancer conditioned medium)	ability of tumor cells to induce osteoclast differentiation (RAW264.7 cells [2]; conditioned medium from MDA-MB-435 cells treated with cyclopamine)	ability of osteoclasts to differentiate (RAW264.7 cells [2]; cyclopamine (20 μM), DM and breast cancer cell-conditioned medium)	levels of OPN mRNA (OPN mRNA; MCC012A cells)	levels of OPN mRNA (OPN mRNA; MCC012F cells)	levels of OPN mRNA (OPN mRNA; MDA-MB-435 cells)	resorption activity of differentiated osteoclasts (RAW264.7 cells [1]; DM with OPN (100 ng/ml) or SHH (100 nM))	numbers of multinucleate TRAP-positive cells (RAW264.7 cells [2]; DM supplemented with OPN (100 ng/ml) or SHH (100 nM) vs DM)	OPN transcript levels, rescue of cyclopamine inhibition (OPN mRNA; MDA-MB-435 cells, cyclopamine 20 μM, after 12 hr medium with recombinant SHH (100 nM))
CC1=C2C[C@H]3[C@@H](CC=C4C[C@@H](O)CC[C@@]43C)[C@@H]2CC[C@]12O[C@@H]1C[C@H](C)CN[C@H]1[C@H]2C [cyclopamine]	significantly (*p<0.0001) compromises their ability to resorb matrix	significant reduction	significantly (*p<0.0001) compromises their ability to differentiate	decreases the levels of OPN mRNA	decreases the levels of OPN mRNA	decreases the levels of OPN mRNA in a dose-dependent manner			
SHH: recombinant Sonic Hedgehog ligand (R & D Systems)							significantly (* indicates p<0.001) increases the resorption activity	potentiates differentiation; also recorded: stimulate osteoclast differentiation; also recorded: significantly (* indicates p<0.005) increases	able to rescue the inhibitory effects of cyclopamine
